Data from US4094966A, “Iodobenzene derivatives and X-ray contrast media containing the same” (priority 1974, dated 1978).

Legend:
[1] = tested on: rats; assay: Toxicological investigation in rats on intracisternal injection (Melartin's method); type: in vivo
Description: The results of a toxicological investigation effected in rats on intracisternal injection, according to E. Melartin's method (InvestigativeRadiology 1970 5, 1, 13-21) are also set forth below.

[2] = tested on: femoral artery; assay: Effect on the femoral rate of flow (peripheral vasodilatation); type: in vivo, mongrels; settings: 1.5 ml into collateral of femoral artery; 28% I, Mgl salt
Description: This test was carried out in Nembutal-anesthetized male or female 7-12 mongrels.
Nembutal was used at a dosage of 30 mg/kg, with Vetranquil pre-medication, (overall intravenous injection of 2.5 mg), respiration was spontaneous.
Rate of flow variations were recorded at the level of the right or left fermoral artery, by means of a Statham electromagnetic sensor.
The injections were made in a collateral of the fermoral artery, downstream of the sensor, by means of a catheter mounted by the retrograde route, so as not to perturb the blood flow.
The injections were made under a constant volume of 1.5 ml administered within 3-5 seconds.
The same volume of an iostonic sodium chloride solution was also injected.

[3] = tested on: mice; assay: Acute toxicity determination, intravenous toxicity in mice; type: in vivo, mice (Swiss origin, IOPS mice of OFI strain); settings: 24 hours, 28% I, Mgl salt
Description: Intravenous toxicity determination was effected in Swiss origin, IOPS mice of OFI strain.
Each dosage level was injected to a lot of 10 mice comprising 5 male and 5 female mice.
Injections were made manually, in the caudal vein, at a rate of 2 ml/minute.
Death rate during the 24 hours after injection was recorded.

[4] = Osmolality determination (FISKE osmometer); type: physicochemical; settings: solutions containing 28% iodine; methylglucamine salts; extrapolation from successive dilutions
Description: Osmolality is determined by extrapolation of the values obtained on successive dilutions of solutions containing 28% or 38% iodine.
Osmolality readings are made with a FISKE Model 230/D/330 D osmometer. This apparatus indicates this measurement as milliosmoles per kg of solution. Its operation is based on the principles of cryoscopy. The determinations were made with solutions containing 28% iodine.

[5] = Biliary clearance test in cats; type: in vivo; set-up: scale not given here; settings: i.v., 0.10 g I/kg; 28% I, Mgl salt
Description: This test was conducted in male or female adult cats weighing 3-4 kg.
The test material was injected intravenously, at a dosage of 0.10 g/kg iodine at the level of the internal saphenous vein. Clearance of the material was monitored by X-ray control.
X-ray pictures visualizing the gall bladder and the bladder were taken at the following times: 30 minutes, 1 hour, 2 hours, 3 hours, 4 hours, 5 hours, 6 hours.

[6] = Viscosity of 28% methylglucamine salt solutions at 37° C; type: physicochemical; settings: 28% iodine methylglucamine salt solution
Description: Pharmaceutical grade injectable solutions are prepared in the form of the methylgucamine or sodium salt, containing 28, 38 or 48 g iodine per 100 ml (solutions said to contain 28%, 38% and 48% iodine).
It is apparent, from said results, that, contrary to expectations, the compounds of the formula (I) have relatively low solution viscosities.

| Compound | Death rate ([1]; 56 mg I per rat) | Peripheral vasodilatation, femoral rate of flow [2] | Acute toxicity in mice, i.v. [3] [grams I/kg] | Osmolality [4] [mosm/kg] | Biliary clearance in cat, i.v. [5] | Viscosity [6] [cps] | Death rate ([1]; 50 mg I per rat) |
| --- | --- | --- | --- | --- | --- | --- | --- |
| CNC(=O)c1c(I)c(NC(=O)CN(CC(=O)Nc2c(I)c(C(=O)NCCO)c(I)c(C(=O)NCCO)c2I)CC(=O)Nc2c(I)c(C(=O)NCCO)c(I)c(C(=O)NCCO)c2I)c(I)c(C(=O)O)c1I [Compound 31, 2,4,6-triiodo--3-N-methylcarbamyl-5-bis{[2,4,6-triiodo-3,5-bis(N-hydroxyethylcarbamyl)-phenyl]carbamylmethyl} aminoacetamido-benzoic acid] | 1/10 | + | 15 | 350 | 0 | 10.2 |  |
| CC(=O)N(C)c1c(I)c(NC(=O)CN(CC(=O)Nc2c(I)c(C(=O)NCCO)c(I)c(C(=O)NCCO)c2I)CC(=O)Nc2c(I)c(C(=O)NCCO)c(I)c(C(=O)NCCO)c2I)c(I)c(C(=O)O)c1I [Compound 32, 2,4,6-triiodo-3-N-methylacetamido-5-bis{[2,4,6-triiodo-3,5-bis(N-hydroxyethylcarbamyl)-phenyl]carbamylmethyl}aminoacetamido-benzoic acid] |  | + | 15 | 270 | 0 |  | 0/10 |
